Test results from patent US12534469B2 (CHILDREN'S HOSPITAL MEDICAL CENTER, priority 2020, dated 2026).
Entries after “also recorded” stand apart in the source; their conditions may differ.

Key:
MOLM14 (D835Y) cells = test: Combination drug screening, 10 x 10 matrix, cell viability (Cell Titer Glo); assay type: cell-based; settings: for Interaction with Venetoclax / Sum Excess HSA: combination with Venetoclax, 10 x 10 dataset; for Sum Excess HSA: 48 hours
Protocol: Briefly, 10 nL of compounds were acoustically dispensed into 1536-well white polystyrene tissue culture-treated plates with an Echo 550 acoustic liquid handler (Labcyte). MOLM14 (D835Y) cells were then added to compound-containing plates at a density of 500-cells/well in 5 μL of medium. A 10-point custom concentration range was used for all listed drugs. Plates were incubated for 48 hours at standard incubator conditions covered by a stainless steel gasketed lid to prevent evaporation. 48 h post compound addition, 3 μL of Cell Titer Glo (Promega) were added to each well and plates were incubated at room temperature for 15 minutes with the stainless-steel lid in place. Luminescence readings were taken using a Viewlux imager (PerkinElmer) with a 2 second exposure time per plate.
However, different methodologies may yield different numerical scores, and different definitions of what constitutes a deviation from mere additivity vs true drug synergy.
However, the utility in certain drug combinations vs others should not be distinguished based on cutoffs between HSA scores, because the score itself is only a relative indicator that is completely dependent on experimental design and is not an absolute number. Furthermore, the concept of what constitutes clinically meaningful drug synergy is something that is still being debated, not only between pharmacologists and physicians, but amongst pharmacologists themselves.

FLT3 D835H = target: T1, FLT3 D835H (Homo sapiens, UniProt P36888, D835H); test: DiscoverX KINOMEscan competition binding assay, FLT3 D835H
T1 construct: purchased DiscoverX (KINOMEscan); host or cells: E. coli (T7 phage) or HEK-293
T1 sequence (P36888 27-993 D835H): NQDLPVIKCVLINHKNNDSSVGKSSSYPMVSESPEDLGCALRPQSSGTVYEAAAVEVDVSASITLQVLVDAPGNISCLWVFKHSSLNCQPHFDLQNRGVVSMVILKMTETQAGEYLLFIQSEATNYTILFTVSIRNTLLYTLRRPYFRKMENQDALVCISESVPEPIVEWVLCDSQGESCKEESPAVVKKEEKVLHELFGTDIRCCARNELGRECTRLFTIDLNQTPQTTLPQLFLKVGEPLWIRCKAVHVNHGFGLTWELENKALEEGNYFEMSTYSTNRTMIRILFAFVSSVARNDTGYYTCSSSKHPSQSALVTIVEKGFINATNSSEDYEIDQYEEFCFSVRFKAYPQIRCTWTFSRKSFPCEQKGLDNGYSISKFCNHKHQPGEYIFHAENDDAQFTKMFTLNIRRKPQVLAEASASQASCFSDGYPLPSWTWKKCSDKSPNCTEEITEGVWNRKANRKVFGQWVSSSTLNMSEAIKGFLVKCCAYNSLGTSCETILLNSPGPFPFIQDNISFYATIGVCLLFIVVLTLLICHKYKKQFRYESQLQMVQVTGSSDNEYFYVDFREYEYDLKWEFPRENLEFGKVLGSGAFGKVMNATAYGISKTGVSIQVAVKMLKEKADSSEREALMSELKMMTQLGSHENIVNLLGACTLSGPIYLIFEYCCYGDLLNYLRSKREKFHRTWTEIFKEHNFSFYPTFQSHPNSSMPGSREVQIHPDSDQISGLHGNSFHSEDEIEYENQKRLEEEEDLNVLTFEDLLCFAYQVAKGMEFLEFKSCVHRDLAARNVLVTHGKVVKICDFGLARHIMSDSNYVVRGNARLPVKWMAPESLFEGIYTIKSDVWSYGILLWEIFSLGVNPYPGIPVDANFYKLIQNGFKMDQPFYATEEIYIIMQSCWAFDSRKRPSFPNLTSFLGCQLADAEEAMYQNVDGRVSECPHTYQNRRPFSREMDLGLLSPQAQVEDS
Text: Kinase binding data were obtained for various exemplary compounds prepared according to Examples 1-25 using the DiscoverX KINOMEscan® active site-directed competition binding site-directed assay protocol described below. […] As a result, the data report thermodynamic interaction affinities (Kd values), rather than IC50 values that are dependent on ATP concentrations. The assay uses a DNA-tagged version of the protein kinase, and an immobilized ligand bound to a solid support. Compounds that directly or indirectly prevent kinase binding to the immobilized ligand reduce the amount of kinase captured on the solid support, which is detected using an ultra-sensitive qPCR method. Affinity constants reported from the assay have been reported to be independent of the immobilized ligand used that is coupled to the solid support (See supplemental information in Fabian, M. A. et. al., (2005) Nat. Biotechnol. 23, 329-336; Wodicka, L. M. et. al., (2010) Chem. Biol. 17, 1241-1249.)
Kinase-tagged T7 phage strains were prepared in an E. coli host derived from the BL21 strain. E. coli were grown to log-phase and infected with T7 phage and incubated with shaking at 32° C. until lysis. The lysates were centrifuged and filtered to remove cell debris. The remaining kinases were produced in HEK-293 cells and subsequently tagged with DNA for qPCR detection. […] The liganded beads were blocked with excess biotin and washed with blocking buffer (SeaBlock (Pierce), 1% BSA, 0.05% Tween 20, 1 mM DTT) to remove unbound ligand and to reduce non-specific binding. […] Test compounds were prepared as 111× stocks in 100% DMSO. Kds were determined using an 11-point 3-fold compound dilution series with three DMSO control points. […] The compounds were then diluted directly into the assays such that the final concentration of DMSO was 0.9%. All reactions were performed in polypropylene 384-well plates. Each was a final volume of 0.02 mL. […] The kinase concentration in the eluates was measured by qPCR.
Binding constants (Kds) were calculated with a standard dose-response curve using the Hill equation. […]

Compound	concentration of compound required to fully potentiate a 7.8 nM concentration of Venetoclax to <5% of the maximum response (MOLM14 (D835Y) cells; 7.8 nM Venetoclax, 10×10 combination) [nM]	Interaction with Venetoclax (MOLM14 (D835Y) cells)	Sum Excess HSA (MOLM14 (D835Y) cells)	Kd (FLT3 D835H) [nM]	concentration at which synergy (Delta Bliss score) is highest (MOLM14 (D835Y) cells; combined with 15.6 nM Venetoclax, 10×10 array) [nM]
COc1cc2ncc(-c3nc(N[C@@H]4CCCNC4)c(F)cc3F)n2nc1C1CC1 [Compound 106, (R)-6-(6-cyclopropyl-7-methoxyimidazo[1,2-b]pyridazin-3-yl)-3,5-difluoro-N-(piperidin-3-yl)pyridin-2-amine]	3.1	profound synergism	−334		
COc1cc2ncc(-c3cccc(N[C@H]4CNCC[C@@H]4F)n3)n2nc1C1CC1 [Compound 102, 6-(6-cyclopropyl-7-methoxyimidazo[1,2-b]pyridazin-3-yl)-N-((3S,4S)-4-fluoropiperidin-3-yl)pyridin-2-amine]		profound synergism	−188.8	0.21	
COc1cc2ncc(-c3cccc(N[C@H]4CNC[C@@H]4F)n3)n2nc1C1CC1 [Compound 96, 6-(6-cyclopropyl-7-methoxyimidazo[1,2-b]pyridazin-3-yl)-N-((3S,4S)-4-fluoropyrrolidin-3-yl)pyridin-2-amine]		profound synergism	−543.2	0.23	
COc1cc2ncc(-c3cccc(N[C@@H]4CCNC4)n3)n2nc1C1CC1 [Compound 97, (R)-6-(6-cyclopropyl-7-methoxyimidazo[1,2-b]pyridazin-3-yl)-N-(pyrrolidin-3-yl)pyridin-2-amine]				0.18	
COc1cc2ncc(-c3cccc(N[C@H]4CNC[C@@H]4C(F)(F)F)n3)n2nc1C1CC1 [Compound 99, 6-(6-cyclopropyl-7-methoxyimidazo[1,2-b]pyridazin-3-yl)-N-((3R,4S)-4-(trifluoromethyl)pyrrolidin-3-yl)pyridin-2-amine]		profound synergism; also recorded: Synergistic	−789.4		
COc1cc2ncc(-c3nc(N[C@H]4CNCC[C@@H]4F)c(F)cc3F)n2nc1C1CC1 [Compound 108, 6-(6-cyclopropyl-7-methoxyimidazo[1,2-b]pyridazin-3-yl)-3,5-difluoro-N-((3S,4S)-4-fluoropiperidin-3-yl)pyridin-2-amine]		profound synergism	−480.4		0.8 to 1.6
